From US20250230193A1, “CYCLIC COMPOUND HAVING SELECTIVE KRAS INHIBITORY EFFECT ON HRAS AND NRAS” (CHUGAI SEIYAKU KABUSHIKI KAISHA, priority 2022, published 2025)

Experiments:
[1] = target: GDP-bound NRAS wild-type protein (Homo sapiens, UniProt P01111); assay: Binding to NRAS by surface plasmon resonance (SPR), Single Cycle Kinetics; settings: for NRAS/KRAS (ratio of KD value with respect to NRAS to KD value with respect to KRAS): SPR, GDP-bound NRAS wild-type vs GDP-bound KRAS wild-type; for NRAS/KRAS (ratio of KD value with respect to GDP-bound NRAS wild-type protein to KD value with respect to KRAS): class symbols
[2] = target: GDP-bound HRAS wild-type protein (Homo sapiens, UniProt P01112); assay: Binding to HRAS by surface plasmon resonance (SPR), Single Cycle Kinetics; settings: for HRAS/KRAS (ratio of KD value with respect to HRAS to KD value with respect to KRAS): SPR, GDP-bound HRAS wild-type vs GDP-bound KRAS wild-type; for HRAS/KRAS (ratio of KD value with respect to GDP-bound HRAS wild-type protein to KD value with respect to KRAS): class symbols
Chain of GDP-bound HRAS wild-type protein (P01112 whole entry): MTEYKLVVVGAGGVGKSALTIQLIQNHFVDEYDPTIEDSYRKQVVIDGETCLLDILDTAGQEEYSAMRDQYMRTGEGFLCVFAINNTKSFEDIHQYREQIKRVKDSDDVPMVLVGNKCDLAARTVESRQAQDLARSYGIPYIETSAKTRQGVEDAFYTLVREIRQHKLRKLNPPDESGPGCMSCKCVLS

Chain of GDP-bound NRAS wild-type protein (P01111 whole entry): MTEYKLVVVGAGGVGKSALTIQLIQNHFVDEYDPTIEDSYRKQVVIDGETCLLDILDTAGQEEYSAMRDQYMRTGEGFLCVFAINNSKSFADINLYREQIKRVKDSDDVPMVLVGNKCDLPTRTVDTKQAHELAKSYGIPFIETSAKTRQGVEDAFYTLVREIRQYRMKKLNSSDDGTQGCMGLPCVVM

| Compound | NRAS/KRAS (ratio of KD value with respect to NRAS to KD value with respect to KRAS) [1] | HRAS/KRAS (ratio of KD value with respect to HRAS to KD value with respect to KRAS) [2] | NRAS/KRAS (ratio of KD value with respect to GDP-bound NRAS wild-type protein to KD value with respect to KRAS) [1] | HRAS/KRAS (ratio of KD value with respect to GDP-bound HRAS wild-type protein to KD value with respect to KRAS) [2] |
| --- | --- | --- | --- | --- |
| CC[C@H](C)[C@@H]1NC(=O)[C@H](COC)N(C)C(=O)C[C@@H](C(=O)N(C)C)N(C)C(=O)[C@H](C2CCCC2)N(C)C(=O)C2(CC(C)(C)C2)NC(=O)[C@@H]2C[C@@H](OC(C)C)CN2C(=O)[C@H](CCc2ccc(Cl)c(Cl)c2)NC(=O)CN(C)C(=O)[C@H](CC2CCCCC2)N2CC/C=C\C[C@@H](C2=O)N(C)C(=O)CN(C2CC2)C1=O [PP2513] | A (a compound having 10 or more and less than 20 is denoted as A) | A (a compound having 10 or more and less than 20 is denoted as A) | – | – |
| C#CCN1CC(=O)N(C)[C@H]2C/C=C\CCN(C2=O)[C@@H](Cc2ccc(C)cc2)C(=O)N(C)CC(=O)N[C@@H](CCc2ccc(C(F)(F)F)c(OC)c2)C(=O)N2C[C@H](OCC)C[C@H]2C(=O)NC2(CC(C)(C)C2)C(=O)N(C)[C@@H](C2CCCC2)C(=O)N(C)[C@H](C(=O)N(C)C)CC(=O)N(C)[C@@H](CCC)C(=O)N[C@@H](CC(C)C)C1=O [PP2514] | A (a compound having 10 or more and less than 20 is denoted as A) | B (a compound having 3 or more and less than 10 is denoted as B) | – | – |
| CCC(CC)[C@H]1C(=O)N(C)[C@H](C(=O)N(C)C)CC(=O)N(C)[C@@H](COC)C(=O)N[C@@H]([C@@H](C)CC)C(=O)N(C2CC2)CC(=O)N(C)[C@H]2C/C=C\CCN(C2=O)[C@@H](CC2CCCCC2)C(=O)N(C)CC(=O)N[C@@H](CCc2cc(F)c(C(F)(F)F)c(F)c2)C(=O)N2C[C@H](OC(C)C)C[C@H]2C(=O)NC2(CC(C)(C)C2)C(=O)N1C [PP2515] | A (a compound having 10 or more and less than 20 is denoted as A) | A (a compound having 10 or more and less than 20 is denoted as A) | – | – |
| CCC[C@H]1C(=O)N[C@@H](CC(C)C)C(=O)N(CC)CC(=O)N(C)[C@H]2C/C=C\CCN(C2=O)[C@@H](Cc2ccc(C)cc2)C(=O)N(C)CC(=O)N[C@@H](CCc2cc(F)c(C(F)(F)F)c(F)c2)C(=O)N2C[C@H](OCC)C[C@H]2C(=O)NC2(CC(C)(C)C2)C(=O)N(C)[C@@H](C2CCCC2)C(=O)N(C)[C@H](C(=O)N(C)C)CC(=O)N1C [PP2516] | A (a compound having 10 or more and less than 20 is denoted as A) | B (a compound having 3 or more and less than 10 is denoted as B) | – | – |
| CCC[C@H]1C(=O)N[C@@H](CC(C)C)C(=O)N(CC)CC(=O)N(C)[C@H]2C/C=C\CCN(C2=O)[C@@H](Cc2ccc(C)cc2)C(=O)N(C)CC(=O)N[C@@H](CCc2ccc(C(F)(F)F)c(OC)c2)C(=O)N2C[C@H](OCC)C[C@H]2C(=O)NC2(CC(C)(C)C2)C(=O)N(C)[C@@H](C2CCCC2)C(=O)N(C)[C@H](C(=O)N(C)C)CC(=O)N1C [PP2518] | A (a compound having 10 or more and less than 20 is denoted as A) | A (a compound having 10 or more and less than 20 is denoted as A) | – | – |
| CCC[C@H]1C(=O)N[C@@H](CC(C)C)C(=O)N(CCOC)CC(=O)N(C)[C@H]2C/C=C\CCN(C2=O)[C@@H](Cc2ccc(C)cc2)C(=O)N(C)CC(=O)N[C@@H](CCc2cc(F)c(C(F)(F)F)c(F)c2)C(=O)N2C[C@H](OCC)C[C@H]2C(=O)NC2(CC(C)(C)C2)C(=O)N(C)[C@@H](C2CCCC2)C(=O)N(C)[C@H](C(=O)N(C)C)CC(=O)N1C [PP2520] | A (a compound having 10 or more and less than 20 is denoted as A) | A (a compound having 10 or more and less than 20 is denoted as A) | – | – |
| CCC[C@H]1C(=O)N[C@@H]([C@@H](C)CC)C(=O)N(C2CC2)CC(=O)N(C)[C@H]2C/C=C\CCN(C2=O)[C@@H](CC2CCC(F)(F)CC2)C(=O)N(C)CC(=O)N[C@@H](CCc2ccc(Cl)c(Cl)c2)C(=O)N2C[C@H](OC(C)C)C[C@H]2C(=O)NC2(CC(C)(C)C2)C(=O)N(C)[C@@H](C2CCCC2)C(=O)N(C)[C@H](C(=O)N(C)C)CC(=O)N1C [PP2521] | A (a compound having 10 or more and less than 20 is denoted as A) | A (a compound having 10 or more and less than 20 is denoted as A) | – | – |
| CCC[C@H]1C(=O)N[C@@H](CC(C)C)C(=O)N(CCOC)CC(=O)N(C)[C@H]2C/C=C\CCN(C2=O)[C@@H](Cc2ccc(C)cc2)C(=O)N(C)CC(=O)N[C@@H](CCc2ccc(C(F)(F)F)c(OC)c2)C(=O)N2C[C@H](OCC)C[C@H]2C(=O)NC2(CC(C)(C)C2)C(=O)N(C)[C@@H](C2CCCC2)C(=O)N(C)[C@H](C(=O)N(C)C)CC(=O)N1C [PP2522] | – | – | B (a compound having 3 or more and less than 10 is denoted as B) | B (a compound having 3 or more and less than 10 is denoted as B) |
| CCC(CC)[C@H]1C(=O)N(C)[C@H](C(=O)N(C)C)CC(=O)N(C)[C@@H](COC)C(=O)N[C@@H]([C@@H](C)CC)C(=O)N(C2CC2)CC(=O)N(C)[C@H]2C/C=C\CCN(C2=O)[C@@H](CC2CCC(F)(F)CC2)C(=O)N(C)CC(=O)N[C@@H](CCc2cc(F)c(C(F)(F)F)c(F)c2)C(=O)N2C[C@H](OC(C)C)C[C@H]2C(=O)NC2(CC(C)(C)C2)C(=O)N1C [PP2523] | – | – | A (a compound having 10 or more and less than 20 is denoted as A) | A (a compound having 10 or more and less than 20 is denoted as A) |
| CCC(CC)[C@H]1C(=O)N(C)[C@H](C(=O)N(C)C)CC(=O)N(C)[C@@H](COC)C(=O)N[C@@H]([C@@H](C)CC)C(=O)N(C2CC2)CC(=O)N(C)[C@H]2C/C=C\CCN(C2=O)[C@@H](CC2CCC(F)(F)CC2)C(=O)N(C)CC(=O)N[C@@H](CCc2ccc(Cl)c(Cl)c2)C(=O)N2C[C@H](OC(C)C)C[C@H]2C(=O)NC2(CC(C)(C)C2)C(=O)N1C [PP2525] | – | – | AA (a compound having 20 or more is denoted as AA) | A (a compound having 10 or more and less than 20 is denoted as A) |
| C#CCN1CC(=O)N(C)[C@H]2C/C=C\CCN(C2=O)[C@@H](Cc2ccc(C)cc2)C(=O)N(C)CC(=O)N[C@@H](CCc2ccc(C(F)(F)F)c(Cl)c2)C(=O)N2C[C@H](OCC)C[C@H]2C(=O)NC2(CC(C)(C)C2)C(=O)N(C)[C@@H](C2CCCC2)C(=O)N(C)[C@H](C(=O)N(C)C)CC(=O)N(C)[C@@H](CCC)C(=O)N[C@@H](CC(C)C)C1=O [PP2526] | – | – | A (a compound having 10 or more and less than 20 is denoted as A) | B (a compound having 3 or more and less than 10 is denoted as B) |
| CCC[C@H]1C(=O)N[C@@H]([C@@H](C)CC)C(=O)N(C2CC2)CC(=O)N(C)[C@H]2C/C=C\CCN(C2=O)[C@@H](Cc2ccc(C(F)F)cc2)C(=O)N(C)CC(=O)N[C@@H](CCc2cc(F)c(C(F)(F)F)c(F)c2)C(=O)N2C[C@H](OCC)C[C@H]2C(=O)NC2(CC(C)(C)C2)C(=O)N(C)[C@@H](C(CC)CC)C(=O)N(C)[C@H](C(=O)N(C)C)CC(=O)N1C [PP2527] | – | – | AA (a compound having 20 or more is denoted as AA) | A (a compound having 10 or more and less than 20 is denoted as A) |
